# Legend:
# Type in all cases: cell-based, human
# OR10H1 = experiment: Stable lentiviral shRNA knock-down of OR10H1 in M579-A2
# OR10H1 mRNA = experiment: RT-PCR of OR10H1 mRNA after siRNA transfection; conditions: M579-A2 cells, 72 h after transfection
# Description: SMART pool siRNA against OR10H1 (GE Dharmacon) were tested (by RT-PCR) for their activity in downregulating OR10H1 mRNA in M579 (melanoma) cells. […] Details of the respective siRNAs are set out in Table E1.
# M579-A2-luc cells [1] = experiment: Luc-CTL cytotoxicity assay, TIL412-mediated killing of M579-A2-luc
# Description: It was surprising to find that all siRNAs show an impact on TIL412-mediated killing of M579-A2-luc at 5:1 Effector to Target cell (E:T) ratio (FIG. 1B). Transfection of M579-A2-luc cells with OR10H1 siRNA 1 increased HLA-matched patient-derived tumor-infiltrating lymphocyte (TIL, clone 412)-mediated killing to 70% (30% remaining melanoma cells compared to a scrambled negative control siRNA; p=<0.0001). This increase in TIL-mediated lysis is stronger than for PD-L1 positive control knock-down (39% remaining cells).
# (§1) The effects of siRNA knock-down on TIL-mediated killing and lysis in a chromium release assay were investigated as described in Khandelwal et al, 2015 (EMBO Mol Med 7:450-63). Tumor-infiltrating lymphocytes 412 and 209 microcultures were expanded from an inguinal lymph node of a melanoma patient as described in Dudley et al, 2010 (Clin Cancer Res 16:6122-31). M615, TIL615 and other patient-derived TIL cells were obtained analogously as described in Dudley et al, 2010. M579-A2-luc cells and M615-luc cells were produced from M579-A2 and M615, respectively (Machlenkin et al, 2008; Cancer Res 68:2006-13).
# M579-A2 cells = experiment: Chromium release assay, lysis of M579-A2 by TIL209; conditions: TIL209, 12.5 E:T ratio, 4 h co-culture
# Description: TIL-mediated lysis of M579-A2 was validated in chromium release assay (4 h co-culture). […] Indeed, this effect of OR10H1 knock-down was stronger than the PD-L1 positive control knock-down (41% specific lysis at 12.5 E:T ratio; FIG. 1C).
# as §1
# [2] = tested on: SW480 colorectal cancer cells; experiment: Chromium release assay, lysis of SW480 by HLA-matched TILs; conditions: SW480, 50:1 E:T ratio, 4 h co-culture
# Description: (§2) Furthermore, it was tested whether OR10H1 knock-down also has an effect in other cancers. […] SW480 (ATCC) and PANC-1 cells were analyzed for their expression of OR10H1 (see above) and the knock-down efficacy of the siRNAs were validated. The CRC cell line SW480 and the PANC-1 cell line were each co-cultured with corresponding HLA-matched TILs for chromium release (4 h co-culture). OR10H1 siRNA 1 almost tripled the lysis of SW480 by TILs in all effector to target ratios compared to the negative control siRNA (33% to 12.8% specific lysis at 50:1 E:T ratio; FIG. 1E). Indeed, knock-down of OR10H1 was almost as effective as knock-down of PD-L1 positive control on TIL-mediated lysis (FIG. 1E). Such effect was also surprising to see in pancreatic cancer cells: knock-down of OR10H1 (siRNA 1) doubled the lysis of PANC-1 by TILs in all effector to target ratios compared to the negative control siRNA (53% to 26% specific lysis at 50:1 E:T ratio; FIG. 1F).
# (§3) The effects of siRNA knock-down on TIL-mediated killing and lysis in a chromium release assay were investigated as described in Khandelwal et al, 2015 (EMBO Mol Med 7:450-63). Tumor-infiltrating lymphocytes 412 and 209 microcultures were expanded from an inguinal lymph node of a melanoma patient as described in Dudley et al, 2010 (Clin Cancer Res 16:6122-31). […]
# [3] = tested on: PANC-1 pancreatic adenocarcinoma cells; experiment: Chromium release assay, lysis of PANC-1 by HLA-matched TILs; conditions: PANC-1, 50:1 E:T ratio, 4 h co-culture
# Description: as §2, §3
# TIL412 = experiment: Luminex cytokine secretion of TIL412 after co-culture with M579-A2; conditions: 20 h co-culture
# M579-A2-luc cells [4] = tested on: M579-A2-luc cells
substance,measurement,setting,value
"OR10H1 shRNA 4: shRNA against OR10H1, TCTGCTGAAGGTCGGAACAAG, Sigma Aldrich TRCN0000357708, SEQ ID No. 31 (the letters are possibly those of the target site; listed as Homo sapiens)",impact on OR10H1 expression and functionality,OR10H1,strongest impact
"OR10H1 siRNA 1: siRNA against OR10H1, GGAGACACCUUGAUGGGCA, GE Dharmacon D-020479-01, SEQ ID No. 24 (listed as RNA, chemistry not given here; listed as Homo sapiens)",knock-down of OR10H1 mRNA (RT-PCR),OR10H1 mRNA,complete absence
same,TIL-mediated killing,"M579-A2-luc cells [1]; TIL412, 5:1 E:T ratio",70%
same,remaining melanoma cells compared to scrambled negative control siRNA,"M579-A2-luc cells [1]; TIL412, 5:1 E:T ratio",30%
same,specific lysis,M579-A2 cells,57%
same,specific lysis,[2],33%
same,specific lysis,[3],53%
same,decrease of IL-6 secretion,TIL412,37%
same,decrease of MCP-1 secretion,TIL412,39%
same,increase of IFN-gamma secretion compared to negative control,TIL412,8%
same,increase of IL-2 secretion,TIL412,58%
same,IFN-gamma secretion,TIL412; supernatant,3037 pg/mL
same,IL-2 secretion,TIL412; supernatant,1701 pg/mL
same,IL-4 secretion,TIL412; supernatant,11.8 pg/mL
same,IL-6 secretion,TIL412; supernatant,31 pg/mL
same,MCP-1 secretion,TIL412; supernatant,4035 pg/mL
same,decrease of IL-4 secretion,TIL412; trend,20%
"OR10H1 siRNA 2: siRNA against OR10H1, AGUAAACUCUACCCAGAAA, GE Dharmacon D-020479-02, SEQ ID No. 25 (listed as RNA, chemistry not given here; listed as Homo sapiens)",knock-down of OR10H1 mRNA (RT-PCR),OR10H1 mRNA,weaker but clear reduction
"OR10H1 siRNA 3: siRNA against OR10H1, GCAGAGAGCCAAUCACUCC, GE Dharmacon D-020479-03, SEQ ID No. 26 (listed as RNA, chemistry not given here; listed as Homo sapiens)",knock-down of OR10H1 mRNA (RT-PCR),OR10H1 mRNA,strong reduction
same,effect on M579-A2-luc viability,M579-A2-luc cells [1]; without the presence of TILs,shows an effect
"OR10H1 siRNA 4: siRNA against OR10H1, GGUCGUGCACUAUGGCUUU, GE Dharmacon D-020479-04, SEQ ID No. 27 (listed as RNA, chemistry not given here; listed as Homo sapiens)",knock-down of OR10H1 mRNA (RT-PCR),OR10H1 mRNA,weaker but clear reduction
cholera toxin,TIL-mediated lysis,M579-A2-luc cells [4],around 30%
same,effect on OR10H1 knockdown-mediated increase in TIL-mediated tumor lysis,M579-A2-luc cells [4],abrogated
same,effect on TIL-mediated tumor lysis in OR10H1 siRNA transfected (OR10H1-negative) M579-A2-luc,M579-A2-luc cells [4],dramatically decreases
same,effect on TIL-mediated tumor lysis in control siRNA transfected M579-A2-luc,M579-A2-luc cells [4],slight decrease
pertussis toxin,effect on TIL-mediated tumor lysis in OR10H1 siRNA transfected (OR10H1-negative) M579-A2-luc,M579-A2-luc cells [4],not observed
same,effect on TIL-mediated tumor lysis in control siRNA transfected M579-A2-luc,M579-A2-luc cells [4],slightly decreased
